Experimental findings from ChEMBL document CHEMBL1649570, “Pharmacokinetics and ex vivo pharmacodynamic antimalarial activity of dihydroartemisinin-piperaquine in patients with uncomplicated falciparum malaria in Vietnam” (Antimicrob Agents Chemother, 2009) are described below.

In series [1] the test system is Homo sapiens. Kind of series: AUC (0 to infinity) in Plasmodium falciparum-infected patient at 40 mg/kg, po. On the set-up: time infinity, dose 40 mg/kg, route oral. Conditions: in vivo. Format: ADME, organism-based, Plasma.
Series [2] relates to Plasmodium falciparum. Description: Antiplasmodial activity against Plasmodium falciparum K1 assessed as inhibition of [3H]hypoxanthine incorporation by beta counting. Format: functional, organism-based.
The nature of series [3]: Tmax in Plasmodium falciparum-infected patient at 40 mg/kg, po. Format: ADME, organism-based. Conditions: human, in vivo. Further details: dose 40 mg/kg, route oral.
The subject of series [4] is Plasmodium falciparum. Kind of series: Antiplasmodial activity against Plasmodium falciparum D6 isolated from po dosed patient with malaria. The class given is functional.
A short description of series [5]: AUC in Plasmodium falciparum-infected patient at 40 mg/kg, po. Format: ADME, organism-based. Further details: dose 40 mg/kg, route oral. Conditions: human, plasma.
The test system of series [6] is Plasmodium falciparum. Description: Antiplasmodial activity against Plasmodium falciparum D6. The class given is functional.
A short description of series [7]: Half life in Plasmodium falciparum-infected patient at 40 mg/kg, po. Format: ADME, organism-based. Further details: dose 40 mg/kg, route oral. The note with it: human, in vivo.
Series [8] can be described thus: Cmax in Plasmodium falciparum-infected patient at 40 mg/kg, po. Format: ADME, organism-based. Further details: dose 40 mg/kg, route oral. Conditions: human, in vivo.
Series [9] concerns Plasmodium falciparum. Kind of series: Antiplasmodial activity against Plasmodium falciparum K1. The class given is functional.
The subject of series [10] is Homo sapiens. Description: Apparent oral clearance in Plasmodium falciparum-infected patient at 40 mg/kg, po. The class given is ADME, organism-based. Further details: dose 40 mg/kg, route oral. Conditions: in vivo.
Series [11] has as its system Plasmodium falciparum. Kind of series: Antiplasmodial activity against Plasmodium falciparum K1 isolated from po dosed patient with malaria. Format: functional.
Series [12] is described as follows: AUC (0 to infinity) in Plasmodium falciparum-infected patient at 320 mg/kg, po. On the set-up: time infinity, dose 320 mg/kg, route oral. Format: ADME, organism-based. The note with it: human, plasma.
The nature of series [13]: Cmax in Plasmodium falciparum-infected patient at 320 mg/kg, po. Conditions: human, in vivo. Further details: dose 320 mg/kg, route oral. Format: ADME, organism-based.
Series [14] can be described thus: Half life in Plasmodium falciparum-infected patient at 320 mg/kg, po. Format: ADME, organism-based. Conditions: human, in vivo. Further details: dose 320 mg/kg, route oral.
Series [15] has as its system Plasmodium falciparum. Kind of series: Antiplasmodial activity against Plasmodium falciparum D6 isolated from po dosed patient with malaria after 7 days. The class given is functional, organism-based.
Series [16] can be described thus: Tmax in Plasmodium falciparum-infected patient at 320 mg/kg, po. Format: ADME, organism-based. On the set-up: dose 320 mg/kg, route oral. Conditions: human, in vivo.
Series [17] relates to Plasmodium falciparum. Kind of series: Antiplasmodial activity against Plasmodium falciparum K1 isolated from po dosed patient with malaria after 7 days. The class given is functional, organism-based.
Series [18] is described as follows: AUC in Plasmodium falciparum-infected patient at 320 mg/kg, po. Format: ADME, organism-based. Further details: dose 320 mg/kg, route oral. The note with it: human, plasma.
Series [19] is described as follows: Plasma concentration in Plasmodium falciparum-infected patient at 320 mg/kg, po after 28 days. Format: ADME, organism-based. On the set-up: dose 320 mg/kg, route oral. The note with it: human.
Series [20] relates to Plasmodium falciparum. Kind of series: Antiplasmodial activity against Plasmodium falciparum D6 isolated from patient with malaria at 25 ng/ml after 28 days. The class given is functional, organism-based.
Series [21] concerns Plasmodium falciparum. Kind of series: Antiplasmodial activity against Plasmodium falciparum K1 isolated from patient with malaria at 25 ng/ml after 28 days. Format: functional, organism-based.

Values after ≈ are worked out from the molar mass of the structure shown. Active and inactive are the calls of the source. No cut-off for these calls is given here.

In the case of `C[C@H]1[C@@H](O)O[C@@H]2O[C@@]3(C)CC[C@H]4[C@H](C)CC[C@@H]1[C@@]24OO3` [ARTENIMOL], the results for the AUC (in the series on Homo sapiens [1]; in series [5]) were 1949 ng·h/mL and 1950 ng·h/mL, respectively. In addition, in the series on Plasmodium falciparum [2], the IC50 is 0.00257 µM. The Tmax in series [3] was found to be 2.8 h. Moreover, the ID90 was 0.639 µg/mL (≈ 2.25 µM) in the series on Plasmodium falciparum [4] and 0.513 µg/mL (≈ 1.8 µM) in the series on Plasmodium falciparum [11]. The IC90 is 0.0045 µM with Plasmodium falciparum [6] and 0.00485 µM with Plasmodium falciparum [9]. The molecule further gave a half-life in series [7] of 0.85 h. Also, the Cmax in series [8] is 698 ng/mL. Moreover, the CL/F with Homo sapiens [10] amounted to 19.8 mL/min/kg.
For the molecule `Clc1ccc2c(N3CCN(CCCN4CCN(c5ccnc6cc(Cl)ccc56)CC4)CC3)ccnc2c1` [PIPERAQUINE], the IC50 in the series with Plasmodium falciparum [2] is 0.0821 µM. The AUC(0-inf) in [12] amounted to 56400 ng·h/mL. Further, in series [13], the Cmax was found to be 568 ng/mL. The molecule further had a half-life in series [14] of 427 h. Besides, the Cp with Plasmodium falciparum [15] and in the series with Plasmodium falciparum [17] was 25 ng/mL in each case. The Tmax in series [16] worked out at 5.7 h. The same molecule gave an AUC in series [18] of 44400 ng·h/mL. For the same molecule, the results for the IC90 in the series on Plasmodium falciparum [6] and in the series on Plasmodium falciparum [9] were 0.0675 µM and 0.122 µM, respectively. In series [19], this molecule came in with a concentration at 672 h of 25 ng/mL. The result with Plasmodium falciparum [20] and with Plasmodium falciparum [21] was inactive.

The AUC is the area under the concentration-time curve, a measure of exposure. Lower therefore signals low exposure. Broadly, the IC50 is the concentration that inhibits the measured activity by half. What is called Tmax is the time from dosing to the highest level. The term IC90 denotes the concentration at which the effect reaches the 90% level. A higher IC90 goes with weaker potency. The term half-life denotes the time in which the quantity being followed falls by half. Lower therefore signals rapid decline. In general, Cmax refers to the highest concentration seen after dosing. A word on the CL/F: it is the apparent clearance, not corrected for the fraction that reaches the circulation. By AUC(0-inf) is commonly meant the area under the concentration-time curve extrapolated to infinity.
